21 compounds from patent publication US20200405697A1, “Antitumor Agent” (Taiho Pharmaceutical Co., Ltd, priority 2017, published 2020) can be followed below.

Molecules are shown by their SMILES.

This assay deals with T1, human RNR (histidine tagged human M1 and human M2 proteins) (Homo sapiens, UniProt P23921).
T1 construct: made in house; host or cells: Escherichia coli
T1 sequence (P23921 1-792): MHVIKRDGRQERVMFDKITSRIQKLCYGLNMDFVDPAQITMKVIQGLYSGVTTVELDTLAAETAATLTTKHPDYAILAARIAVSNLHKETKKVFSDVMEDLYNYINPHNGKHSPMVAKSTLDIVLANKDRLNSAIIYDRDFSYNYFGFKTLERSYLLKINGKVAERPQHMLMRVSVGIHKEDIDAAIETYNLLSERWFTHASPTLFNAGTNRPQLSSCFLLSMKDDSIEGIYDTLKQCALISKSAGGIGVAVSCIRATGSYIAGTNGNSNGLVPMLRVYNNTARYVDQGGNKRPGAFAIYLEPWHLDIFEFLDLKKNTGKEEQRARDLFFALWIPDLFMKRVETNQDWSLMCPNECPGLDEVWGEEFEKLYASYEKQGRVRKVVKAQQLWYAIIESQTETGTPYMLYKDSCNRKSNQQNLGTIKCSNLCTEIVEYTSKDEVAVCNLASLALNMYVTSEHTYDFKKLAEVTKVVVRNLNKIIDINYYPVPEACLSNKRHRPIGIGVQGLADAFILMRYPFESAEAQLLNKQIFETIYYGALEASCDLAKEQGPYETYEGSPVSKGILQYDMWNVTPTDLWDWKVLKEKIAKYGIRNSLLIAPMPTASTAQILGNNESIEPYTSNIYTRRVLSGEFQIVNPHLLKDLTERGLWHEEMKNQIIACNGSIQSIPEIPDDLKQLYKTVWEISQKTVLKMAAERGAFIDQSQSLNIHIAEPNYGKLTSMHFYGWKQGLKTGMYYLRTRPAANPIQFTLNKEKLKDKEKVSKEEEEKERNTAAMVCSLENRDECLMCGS
Nature of the assay: Human RNR inhibition effect (dCDP formation from CDP). The class given is biochemical. The conditions noted are these: 10 μM CDP, 37° C. for 30 minutes, read-out: RNR inhibitory activity IC50. The method, boiled down: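 His-tagged human M1 (isoform 1) and N-terminal 59-aa-truncated M2 (isoform 2), E. coli-expressed, Ni-purified, preincubated 20 min with compound (1% DMSO). Reaction with 10 μM CDP, 2 mM ATP, 0.24 mM NADPH, 6 mM DTT, 4 mM Mg acetate, 100 mM KCl, 50 mM HEPES pH 7.2, 30 min at 37° C. dCDP formed quantified by reverse-phase HPLC after heat stop.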
`COc1ccc(-c2ccc(F)c([C@@H](C)[C@H](NS(=O)(=O)c3ccc(Cl)cc3OC)c3n[nH]c(=O)o3)c2C)cc1` [Example 298, 4-chloro-N-((1S,2R)-2-(4-fluoro-4′-methoxy-2-methyl-[1,1′-biphenyl]-3-yl)-1-(5-oxo-4,5-dihydro-1,3,4-oxadiazol-2-yl)propyl)-2-methoxybenzenesulfonamide]: the IC50 (as a rule, the concentration that gives 50% inhibition) came to 300 nM.
With `Cc1ccc(F)c([C@@H](C)[C@H](NS(=O)(=O)c2ccc3[nH]ncc3c2)c2n[nH]c(=O)o2)c1C` [Example 182, N-((1S,2R)-2-(6-fluoro-2,3-dimethylphenyl)-1-(5-oxo-4,5-dihydro-1,3,4-oxadiazol-2-yl)propyl)-1H-indazole-5-sulfonamide], the IC50 is 410 nM.
Take `Cc1ccc(F)c([C@@H](C)[C@H](NS(=O)(=O)c2ccc(Cl)c3c2OCCC3(C)O)c2n[nH]c(=O)o2)c1C` (single isomer, unassigned) [Example 207A]: the IC50 turned out to be 130 nM.
For the compound `Cc1ccc(F)c([C@@H](C)[C@H](NS(=O)(=O)c2c(F)cc(F)c3c2OCCC3O)c2n[nH]c(=O)o2)c1C` (stereo partly drawn) [Example 242, 5,7-difluoro-N-((1S,2R)-2-(6-fluoro-2,3-dimethylphenyl)-1-(5-oxo-4,5-dihydro-1,3,4-oxadiazol-2-yl)propyl)-4-hydroxychroman-8-sulfonamide], the IC50 worked out at 230 nM.
As for `Cc1c(Br)ccc(F)c1[C@@H](C)[C@H](NS(=O)(=O)c1ncc(Cl)cc1C(N)=O)c1n[nH]c(=O)o1` [Example 264, 2-(N-((1S,2R)-2-(3-bromo-6-fluoro-2-methylphenyl)-1-(5-oxo-4,5-dihydro-1,3,4-oxadiazol-2-yl)propyl)sulfamoyl)-5-chloronicotinamide], the IC50 turned out to be 60 nM.
The value for `[2H]C([2H])([2H])[C@H](c1c(F)ccc(C)c1C)[C@H](NS(=O)(=O)c1ccc(Cl)cc1C(N)=O)c1n[nH]c(=O)o1` [Example 43, 5-chloro-2-[[(1S,2R)-3,3,3-trideuterio-2-(6-fluoro-2,3-dimethylphenyl)-1-(2-oxo-3H-1,3,4-oxadiazol-5-yl)propyl]sulfamoyl]benzamide] was 80 nM; that for `Cc1c(Br)ccc(F)c1[C@@H](C)[C@H](NS(=O)(=O)c1ccc(Cl)cc1C(N)=O)c1n[nH]c(=O)o1` [Example 30, 2-(N-((1S,2R)-2-(3-bromo-6-fluoro-2-methylphenyl)-1-(5-oxo-4,5-dihydro-1,3,4-oxadiazol-2-yl)propyl)sulfamoyl)-5-chlorobenzamide] was 150 nM; that for `Cc1ccc(F)c([C@@H](C)[C@H](NS(=O)(=O)c2c(Cl)cc(Cl)cc2C(N)=O)c2n[nH]c(=O)o2)c1C` [Example 256, 3,5-dichloro-2-(N-((1S,2R)-2-(6-fluoro-2,3-dimethylphenyl)-1-(5-oxo-4,5-dihydro-1,3,4-oxadiazol-2-yl)propyl)sulfamoyl)benzamide] was 420 nM.
Then `Cc1c(Br)ccc(F)c1[C@@H](C)[C@H](NS(=O)(=O)c1ccc(F)c2c1OCCC2(C)O)c1n[nH]c(=O)o1` (single isomer, unassigned) [Example 227A], with 50 nM; and `[2H]C([2H])([2H])C1(O)CCOc2c(S(=O)(=O)N[C@H](c3n[nH]c(=O)o3)[C@H](C)c3c(F)ccc(Br)c3C)ccc(Cl)c21` (single isomer, unassigned) [Example 226B], with 70 nM.
Then `CC(=O)OC1(C)CCOc2c(S(=O)(=O)N[C@H](c3n[nH]c(=O)o3)[C@H](C)c3c(F)ccc(Cl)c3C)ccc(Cl)c21` (stereo partly drawn) [Example 100, 5-chloro-8-(N-((1S,2R)-2-(3-chloro-6-fluoro-2-methylphenyl)-1-(5-oxo-4,5-dihydro-1,3,4-oxadiazol-2-yl)propyl)sulfamoyl)-4-methylchroman-4-yl acetate], with 300 nM; and `C[C@H](c1c(F)ccc2ccccc12)[C@H](NS(=O)(=O)c1ccc(Cl)c2c1OCCC2O)c1n[nH]c(=O)o1` (stereo partly drawn) [Example 233, 5-chloro-N-((1S,2R)-2-(2-fluoronaphthalene-1-yl)-1-(5-oxo-4,5-dihydro-1,3,4-oxadiazol-2-yl)propyl)-4-hydroxychroman-8-sulfonamide], with 130 nM.
In the case of `COC(=O)c1cc(Br)cnc1S(=O)(=O)N[C@H](c1n[nH]c(=O)o1)[C@H](C)c1c(F)ccc(C)c1C` [Example 119, methyl 5-bromo-2-(N-((1S,2R)-2-(6-fluoro-2,3-dimethylphenyl)-1-(5-oxo-4,5-dihydro-1,3,4-oxadiazol-2-yl)propyl)sulfamoyl)nicotinate], the IC50 is 450 nM.
Take `COc1cc(Cl)ccc1S(=O)(=O)N[C@H](c1n[nH]c(=O)o1)[C@H](C)c1c(F)ccc(-c2cnn(C(F)F)c2)c1C` [Example 304, 4-chloro-N-((1S,2R)-2-(3-(1-(difluoromethyl)-1H-pyrazol-4-yl)-6-fluoro-2-methylphenyl)-1-(5-oxo-4,5-dihydro-1,3,4-oxadiazol-2-yl)propyl)-2-methoxybenzenesulfonamide]: the IC50 was found to be 160 nM.
The value for `COc1cc(Cl)ccc1S(=O)(=O)N[C@H](c1n[nH]c(=S)[nH]1)[C@H](C)c1c(F)ccc(C)c1C` [Example 350] was 460 nM.
The value for `COc1c(S(=O)(=O)N[C@H](c2n[nH]c(=O)o2)[C@H](C)c2c(F)ccc(C)c2C)ccc(Cl)c1C(C)=O` [Example 294, 3-acetyl-4-chloro-N-((1S,2R)-2-(6-fluoro-2,3-dimethylphenyl)-1-(5-oxo-4,5-dihydro-1,3,4-oxadiazol-2-yl)propyl)-2-methoxybenzenesulfonamide] was 110 nM; that for `COc1cc(C(N)=O)ccc1S(=O)(=O)N[C@H](c1n[nH]c(=O)o1)[C@H](C)c1c(F)ccc(C)c1C` [Example 346, 4-(N-((1S,2R)-(6-fluoro-2,3-dimethylphenyl)-1-(5-oxo-4,5-dihydro-1,3,4-oxadiazol-2 yl)propyl)sulfamoyl)-3-methoxybenzamide] was 420 nM; that for `COc1c(S(=O)(=O)N[C@H](c2n[nH]c(=O)o2)[C@H](C)c2c(F)ccc3ccccc23)ccc(Cl)c1C(C)O` (stereo partly drawn) [Example 205, 4-chloro-N-((1S,2R)-2-(2-fluoronaphthalene-1-yl)-1-(5-oxo-4,5-dihydro-1,3,4-oxadiazol-2-yl)propyl)-3-(1-hydroxyethyl)-2-methoxybenzenesulfonamide] was 80 nM.
Then `COc1cc(N)ccc1S(=O)(=O)N[C@H](c1n[nH]c(=O)o1)[C@H](C)c1c(F)ccc2ccccc12` [Example 265, 4-amino-N-((1S,2R)-2-(2-fluoronaphthalen-1-yl)-1-(5-oxo-4,5-dihydro-1,3,4-oxadiazol-2-yl)propyl)-2-methoxybenzenesulfonamide], with 260 nM; and `Cc1ccc(F)c([C@@H](C)[C@H](NS(=O)(=O)c2ccc3c(c2)OCCO3)c2n[nH]c(=O)o2)c1C` [Example 173, N-((1S,2R)-2-(6-fluoro-2,3-dimethylphenyl)-1-(5-oxo-4,5-dihydro-1,3,4-oxadiazol-2-yl)propyl)-2,3-dihydrobenzo[b][1,4]dioxin-6-sulfonamide], with 130 nM.
Take `C=C(c1c(F)ccc(C)c1C)[C@H](NS(=O)(=O)c1ccc(Cl)cc1OC)c1n[nH]c(=O)o1` [Example 185, (S)-4-chloro-N-(2-(6-fluoro-2,3-dimethylphenyl)-1-(5-oxo-4,5-dihydro-1,3,4-oxadiazol-2-yl)allyl)-2-methoxybenzensulfonamide]: the IC50 came to 600 nM.
